Target: T1, Induced myeloid leukemia cell differentiation protein Mcl-1/Bcl-2-like protein 11 (Homo sapiens) (UniProt Q07820+O43521)
Assay: Inhibition of GST-Mcl-1/BH3 domain of Bim interaction at 25 uM after 1 hr by ELISA
Format: protein assay
Conditions: not given

T1 sequence (O43521 whole entry, looked up, the tested form may be a part): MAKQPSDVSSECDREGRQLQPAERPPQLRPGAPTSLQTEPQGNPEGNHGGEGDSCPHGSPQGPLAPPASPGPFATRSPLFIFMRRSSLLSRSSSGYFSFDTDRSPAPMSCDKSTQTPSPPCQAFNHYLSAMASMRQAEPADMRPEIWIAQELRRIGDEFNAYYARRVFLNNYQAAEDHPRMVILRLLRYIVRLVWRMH
T1 sequence (Q07820 whole entry, looked up, the tested form may be a part): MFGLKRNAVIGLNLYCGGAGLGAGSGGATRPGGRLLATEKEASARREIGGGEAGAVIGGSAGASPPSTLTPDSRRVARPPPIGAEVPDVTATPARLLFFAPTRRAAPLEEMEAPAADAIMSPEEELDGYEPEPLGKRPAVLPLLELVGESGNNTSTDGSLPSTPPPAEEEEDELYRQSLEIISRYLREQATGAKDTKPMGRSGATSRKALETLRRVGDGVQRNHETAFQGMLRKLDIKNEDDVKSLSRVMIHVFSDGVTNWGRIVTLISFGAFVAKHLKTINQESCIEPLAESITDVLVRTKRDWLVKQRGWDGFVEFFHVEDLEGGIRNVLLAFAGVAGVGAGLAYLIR

SMILES | inhibition
COCOC[C@@]12C=C[C@@H](C(C)(C)C(=O)OCc3ccccc3)C[C@@H]1C=C(C)C[C@@H]2OCc1ccccc1 | 64.9%
COCOC[C@@]12C=C[C@@H](C(C)(C)C(=O)NCc3ccc(Br)cc3)C[C@@H]1C=C(C)C[C@@H]2OC(=O)NC1CCCCC1 (relative stereo) | 64.4%
COCOC[C@@]12C=C[C@@H](C(C)(C)C(=O)NCc3ccccc3)C[C@@H]1C=C(C)C[C@@H]2OC(=O)NC1CCCCC1 (relative stereo) | 53.9%
COC(=O)C(C)(C)[C@@H]1C=C[C@@]2(CO)[C@@H](O)CC(C)=C[C@H]2C1 | 25%
COCOC[C@@]12C=C[C@@H](C(C)(C)C(=O)N3CCOCC3)C[C@@H]1C=C(C)C[C@@H]2OC(=O)NC1CCCCC1 (relative stereo) | 26.5%

More lines, now with the values ahead:

inhibition | SMILES
34.8% | COCOC[C@@]12C=C[C@@H](C(C)(C)C(=O)OC)C[C@@H]1C=C(C)C[C@@H]2OC(=O)NC1CCCCC1
17.1% | C=C(C)CNC(=O)C(C)(C)[C@@H]1C=C[C@@]2(COCOC)[C@@H](O)CC(C)=C[C@H]2C1
61.8% | C=C(C)CNC(=O)C(C)(C)[C@@H]1C=C[C@@]2(COCOC)[C@@H](OC(=O)Nc3ccccc3)CC(C)=C[C@H]2C1 (relative stereo)
18.2% | COCOC[C@@]12C=C[C@@H](C(C)(C)C(=O)O)C[C@@H]1C=C(C)C[C@@H]2O
40.3% | C=C(C)CNC(=O)C(C)(C)[C@@H]1C=C[C@@]2(COCOC)[C@@H](OC(=O)NCc3ccccc3)CC(C)=C[C@H]2C1 (relative stereo)
31.2% | C=C(C)COC(=O)C(C)(C)[C@@H]1C=C[C@@]2(COCOC)[C@@H](OCC(=C)C)CC(C)=C[C@H]2C1
31.2% | C=C(C)CNC(=O)C(C)(C)[C@@H]1C=C[C@@]2(COCOC)[C@@H](OC(=O)NC(C)C)CC(C)=C[C@H]2C1 (relative stereo)
19.7% | C=C(C)CNC(=O)C(C)(C)[C@@H]1C=C[C@@]2(COCOC)[C@@H](OC(=O)NC3CCCC3)CC(C)=C[C@H]2C1 (relative stereo)
74.3% | C=C(C)CNC(=O)C(C)(C)C1C=CC2(COCOC)C(C=C(C)CC2OC(=O)Nc2cccc(Cl)c2)C1 (racemic)
53.8% | C=C(C)CNC(=O)C(C)(C)[C@@H]1C=C[C@@]2(COCOC)[C@@H](OC(=O)NC3CCCCC3)CC(C)=C[C@H]2C1 (relative stereo)

Target: Induced myeloid leukemia cell differentiation protein Mcl-1/Bcl-2-like protein 11 (Homo sapiens, UniProt Q07820)
Sequence (Q07820 whole entry, the tested form may be a part): as the sequence (Q07820 whole entry, looked up, the tested form may be a part) above
Sequence (O43521 whole entry, further chain, the tested form may be a part): as the sequence (O43521 whole entry, looked up, the tested form may be a part) above
Assay: Inhibition of GST-Mcl-1/BH3 domain of Bim interaction after 1 hr by ELISA
Format: protein assay
Conditions: not given

SMILES | IC50
COCOC[C@@]12C=C[C@@H](C(C)(C)C(=O)OCc3ccccc3)C[C@@H]1C=C(C)C[C@@H]2OCc1ccccc1 | 13.1 µM
COCOC[C@@]12C=C[C@@H](C(C)(C)C(=O)NCc3ccc(Br)cc3)C[C@@H]1C=C(C)C[C@@H]2OC(=O)NC1CCCCC1 (relative stereo) | 17 µM
C=C(C)CNC(=O)C(C)(C)C1C=CC2(COCOC)C(C=C(C)CC2OC(=O)Nc2cccc(Cl)c2)C1 (racemic) | 8.3 µM

Target: T1, Induced myeloid leukemia cell differentiation protein Mcl-1/Bcl-2-like protein 11 (Homo sapiens)
Assay: Inhibition of GST-Mcl-1/BH3 domain of Bim interaction in human MDA-MB-468 cells at 25 uM after 24 hrs by Western blotting relative to control
Format: cell-based
Conditions: not given

SMILES | inhibition
CC(C)Cc1cc(-c2ccc(-c3ccc(CCC(=O)O)cc3CC(C)C)cc2Cc2ccccc2)ccc1OCC(=O)O | 61.9%
C=C(C)CNC(=O)C(C)(C)C1C=CC2(COCOC)C(C=C(C)CC2OC(=O)Nc2cccc(Cl)c2)C1 (racemic) | 70.6%
O=C(O)CCc1ccc(-c2ccc(-c3ccc(OCC(=O)O)cc3)cc2)cc1 | 96.9%

Target: T1, Induced myeloid leukemia cell differentiation protein Mcl-1/Bcl-2-like protein 11 (Homo sapiens)
Assay: Inhibition of GST-Mcl-1/BH3 domain of Bim interaction in human MDA-MB-468 cells at 50 uM after 24 hrs by Western blotting relative to control
Format: cell-based
Conditions: not given

SMILES | inhibition
CC(C)Cc1cc(-c2ccc(-c3ccc(CCC(=O)O)cc3CC(C)C)cc2Cc2ccccc2)ccc1OCC(=O)O | 55.7%
C=C(C)CNC(=O)C(C)(C)C1C=CC2(COCOC)C(C=C(C)CC2OC(=O)Nc2cccc(Cl)c2)C1 (racemic) | 46.4%
O=C(O)CCc1ccc(-c2ccc(-c3ccc(OCC(=O)O)cc3)cc2)cc1 | 107%

Test system: MDA-MB-468
Assay: Growth inhibition of human MDA-MB-468 cells at 100 uM after 72 to 120 hrs by MTT assay
Format: functional
Conditions: read-out: GI

SMILES | inhibition of growth at 100 µM
C=C(C)CNC(=O)C(C)(C)C1C=CC2(COCOC)C(C=C(C)CC2OC(=O)Nc2cccc(Cl)c2)C1 (racemic) | 80%

Test system: not listed separately
Assay: Solubility of the compound in human MDA-MB-468 cell culture medium at >100 uM
Format: physicochemical
Conditions: not given

SMILES | solubility
C=C(C)CNC(=O)C(C)(C)C1C=CC2(COCOC)C(C=C(C)CC2OC(=O)Nc2cccc(Cl)c2)C1 (racemic) | Insoluble

Source: ChEMBL document CHEMBL2069165, “Synthesis and evaluation of substituted hexahydronaphthalenes as novel inhibitors of the Mcl-1/BimBH3 interaction” (Bioorg Med Chem Lett, 2012)
